This passage reports MIC results from patent publication US10729701B2, “Compounds that are analogs of squalamine, used as antibacterial agents” (VIRBAC, priority 2015, dated 2020).

This test deals with P. aeruginosa (PAO1). In words: MIC of conventional antibiotics alone. It is filed as cell-based. Particulars: Pseudomonas aeruginosa; antibiotic alone, Gram-negative strain of P. aeruginosa (PAO1); read-out: MIC.

Regarding `C[C@H]1c2cccc(O)c2C(=O)C2=C(O)[C@]3(O)C(=O)C(C(N)=O)=C(O)[C@@H](N(C)C)[C@@H]3[C@@H](O)[C@@H]21` [doxycycline], the MIC was determined as 40 µg/mL.

A word on the MIC: it is the lowest concentration found to suppress growth.
